Source: patent US20190117620A1, “CHEMOTHERAPY IMPROVEMENTS” (NOXOPHARM LIMITED, priority 2016, published 2019)

Key:
[1] = system: castrate-resistant metastatic prostate cancer; experiment: Example 3: docetaxel course, with or without rectal dehydroequol as adjuvant, in castrate-resistant metastatic prostate cancer; format: in vivo, human; conditions: stated objective; dehydroequol 400 mg once daily rectally for 7 days as adjuvant to docetaxel 175 mg/m2 iv every 21 days
Method: A patient with castrate-resistant metastatic prostate cancer with secondary cancers in several inguinal lymph nodes and multiple bones (thoracic vertebrae, femur, ribs, humerus). Having progressed on hormone-ablation therapy, the standard next step for this patient is to receive a course of treatment with docetaxel involving an intravenous injection of a dosage of […] over 3 hours every 21 days for 18 weeks.
Dehydroequol is administered as adjuvant therapy at a dosage of 400 mg once daily for 7 consecutive days commencing on the day prior to the administration of docetaxel and repeated for the duration of the course of docetaxel therapy. The dehydroequol is administered rectally in a solid 2 gram suppository dosage form in a theobroma oil base.

[2] = system: late-stage ovarian cancer; experiment: Example 2: rectal dehydroequol with intravenous carboplatin in a patient with platin- and taxane-refractory late-stage ovarian cancer; format: in vivo, human; conditions: stated objective; dehydroequol 400 mg every 12 hours rectally for 7 days + carboplatin AUC 6 iv on Day 2, every 28 days, 6 courses
From the text: A patient with late-stage ovarian cancer. Previously treated intravenously with multiple rounds of carboplatin and paclitaxel and now displaying multi-drug resistance by showing disease progression while undergoing combined therapy with carboplatin/paclitaxel. This patient meets the definition of platin- and taxane-refractory disease.
The patient is showing multiple tumours throughout the abdominal cavity and is suffering failing health although still considered sufficiently robust to withstand further cytotoxic chemotherapy were it considered likely to provide a benefit.
The patient is treated with 400 mg of dehydroequol every 12 hours for 7 consecutive days. The dehydroequol is administered rectally in a solid 2 gram suppository dosage form in a theobroma oil base.
Carboplatin is injected intravenously at a dosage equivalent to an AUC of 6 on Day 2 of the 7-day dehydroequol treatment regimen.
This regimen is repeated every 28 days for a total of 6 courses of treatment.

[3] = system: castrate-resistant metastatic prostate cancer; conditions: docetaxel alone, standard course; response = complete remission, partial remission or no disease progression; cited from earlier work

Oc1ccc(C2=Cc3ccc(O)cc3OC2)cc1 [dehydroequol, 2H-1-Benzopyran-7-0,1,3-(4-hydroxyphenyl)]
response rate (objective) [1]: 40-100% | prolong the survival of the patient (additional) [2]: 12 months

CC(=O)O[C@@]12CO[C@@H]1C[C@H](O)[C@@]1(C)C(=O)[C@H](O)C3=C(C)[C@@H](OC(=O)[C@H](O)[C@@H](NC(=O)OC(C)(C)C)c4ccccc4)C[C@@](O)([C@@H](OC(=O)c4ccccc4)[C@H]21)C3(C)C [docetaxel]
response rate (reported) [3]: 30%
